Experimental data from patent US9884832B2 (priority 2011, dated 2018).
Like-named read-outs stand apart in the source and are kept apart here.

Target: AM2 S31N (serine→asparagine mutation at residue 31 in the M2 protein) (Influenza A virus, UniProt P0DOF5, S31N)
Format: cell-based, influenza virus A/Udorn/72

Compound	S31N OOcyte Inhibition at 100 uM (%) (pH 5.5)	S31N OOcyte Inhibition at 100 uM (%)
CCCc1cc(CNC23CC4CC(CC(C4)C2)C3)no1 [Example 26b, N-((5-propylisoxazol-3-yl)methyl)adamantan-1-amine]	A (key: (A)=31-95%; (B)=0-30%)	
CC(C)(C)c1nc(CNC23CC4CC(CC(C4)C2)C3)no1 [Example 103a, N-((5-(tert-butyl)-1,2,4-oxadiazol-3-yl)methyl)adamantan-1-amine]		A (key: (A)=31-95%; (B)=0-30%)
c1ccc(-c2cnc(CNC34CC5CC(CC(C5)C3)C4)[nH]2)cc1 [Example 53b, N-((5-phenyl-1H-imidazol-2-yl)methyl)adamantan-1-amine]	A (key: (A)=31-95%; (B)=0-30%)	
Cc1nc(CNC23CC4CC(CC(C4)C2)C3)cs1 [Example 12b, N-((2-methylthiazol-4-yl)methyl)adamantan-1-amine]	A (key: (A)=31-95%; (B)=0-30%)	
c1cn(-c2ccc(CNC34CC5CC(CC(C5)C3)C4)s2)cn1 [Example 161a, N-((5-(1H-imidazol-1-yl)thiophen-2-yl)methyl)adamantan-1-amine]		B (key: (A)=31-95%; (B)=0-30%)
COc1cccc(-c2cc(CNC34CC5CC(CC(C5)C3)C4)no2)c1 [Example 39b, N-((5-(3-methoxyphenyl)isoxazol-3-yl)methyl)adamantan-1-amine]	A (key: (A)=31-95%; (B)=0-30%)	
c1cc2[nH]c(CNC34CC5CC(CC(C5)C3)C4)cc2o1 [Example 78b, Adamantan-1-yl-(4H-furo[3,2-b]pyrrol-5-ylmethyl)-amine]	A (key: (A)=31-95%; (B)=0-30%)	
CC(C)c1cc(CNC23CC4CC(CC(O)(C4)C2)C3)no1 [Example 85b, (1s,3r,5R,7S)-3-(((5-isopropylisoxazol-3-yl)methyl)amino)adamantan-1-61]	A (key: (A)=31-95%; (B)=0-30%)	
FC(F)(F)c1ccc(-c2nc(CNC34CC5CC(CC(C5)C3)C4)no2)cc1 [Example 129a, N-((5-(4-(trifluoromethyl)phenyl)-1,2,4-oxadiazol-3-yl)methyl)adamantan-1-amine]		A (key: (A)=31-95%; (B)=0-30%)
COCc1nc(CNC23CC4CC(CC(C4)C2)C3)no1 [Example 23b, N-((5-(methoxymethyl)-1,2,4-oxadiazol-3-yl)methyl)adamantan-1-amine]	A (key: (A)=31-95%; (B)=0-30%)	
COc1ccccc1-c1ccc(CNC23CC4CC(CC(C4)C2)C3)nc1 [Example 69b, Adamantan-1-yl-[5-(2-methoxy-phenyl)-pyridin-2-ylmethyl]-amine]	A (key: (A)=31-95%; (B)=0-30%)	
Cn1cc(CNC23CC4CC(CC(C4)C2)C3)nn1 [Example 18b, N-((1-methyl-1H-1,2,3-triazol-4-yl)methyl)adamantan-1-amine]	B (key: (A)=31-95%; (B)=0-30%)	
O=C(CNC12CC3CC(CC(C3)C1)C2)c1cccs1 [Example 87b, 2-(adamantan-1-ylamino)-1-(thiophen-2-yl)ethanone]	B (key: (A)=31-95%; (B)=0-30%)	
FC(F)(F)c1cccc(-c2nc(CNC34CC5CC(CC(C5)C3)C4)no2)c1 [Example 130a, N-((5-(3-(trifluoromethyl)phenyl)-1,2,4-oxadiazol-3-yl)methyl)adamantan-1-amine]		A (key: (A)=31-95%; (B)=0-30%)
COc1ccccc1-c1nc(CNC23CC4CC(CC(C4)C2)C3)no1 [Example 15b, N-((5-(2-methoxyphenyl)-1,2,4-oxadiazol-3-yl)methyl)adamantan-1-amine]	A (key: (A)=31-95%; (B)=0-30%)	
c1nc(CNC23CC4CC(CC(C4)C2)C3)no1 [Example 73a, Adamantan-1-yl-[1,2,4]oxadiazol-3-ylmethyl-amine]		A (key: (A)=31-95%; (B)=0-30%)
c1c(CNC23CC4CC(CC(C4)C2)C3)noc1C1CC1 [Example 107a, N-((5-cyclopropylisoxazol-3-yl)methyl)adamantan-1-amine]		A (key: (A)=31-95%; (B)=0-30%)
Cc1cc(CNC23CC4CC(CC(C4)C2)C3)no1 [Example 95a, N-((5-methylisoxazol-3-yl)methyl)adamantan-1-amine]		A (key: (A)=31-95%; (B)=0-30%)
Cc1ccc(CNC23CC4CC(CC(C4)C2)C3)cc1 [Example 8a, N-(4-Methylbenzyl)adamantan-1-amine]		B (key: (A)=31-95%; (B)=0-30%)
Clc1nc(CNC23CC4CC(CC(C4)C2)C3)ns1 [Example 10b, N-((5-chloro-1,2,4-thiadiazol-3-yl)methyl)adamantan-1-amine]	A (key: (A)=31-95%; (B)=0-30%)	
c1csc(-c2ccc(CNC34CC5CC(CC(C5)C3)C4)cn2)c1 [Example 58a, N-((6-(thiophen-2-yl)pyridin-3-yl)methyl)adamantan-1-amine]		A (key: (A)=31-95%; (B)=0-30%)
Clc1cc2cc(CNC34CC5CC(CC(C5)C3)C4)sc2s1 [Example 173a, Adamantan-1-yl-(5-chloro-thieno[2,3-b]thiophen-2-ylmethyl)-amine]		A (key: (A)=31-95%; (B)=0-30%)

Compound	S31N OOcyte Inhibition at 100 uM (%) (pH 5.5)	S31N OOcyte Inhibition at 100 uM (%)
Cc1csc(CNC23CC4CC(CC(C4)C2)C3)n1 [Example 68b, Adamantan-1-yl-(4-methyl-thiazol-2-ylmethyl)-amine]	A (key: (A)=31-95%; (B)=0-30%)	
OC12CC3CC(C1)CC(NCc1cc4cc(Br)sc4s1)(C3)C2 [Example 195a, 3-[(5-Bromo-thieno[2,3-b]thiophen-2-ylmethyl)-amino]-adamantan-1-ol]		A (key: (A)=31-95%; (B)=0-30%)
c1cn(-c2ccc(CNC34CC5CC(CC(C5)C3)C4)cc2)cn1 [Example 36a, N-(4-(1H-imidazol-1-yl)benzyl)adamantan-1-amine]		26.9%
CSc1ccc(-c2cc(CNC34CC5CCC(CC(C5)C3)C4)no2)cc1 [Example 91b, (1S,3R,8S)—N-((5-(4-(methylthio)phenyl)isoxazol-3-yl)methyl)tricyclo[4.3.1.13,8]undecan-1-amine]	A (key: (A)=31-95%; (B)=0-30%)	
c1cncc(-c2noc(CNC34CC5CC(CC(C5)C3)C4)n2)c1 [Example 135a, Adamantan-1-yl-(3-pyridin-3-yl-[1,2,4]oxadiazol-5-ylmethyl)-amine]		A (key: (A)=31-95%; (B)=0-30%)
c1cc(-c2ccc(CNC34CC5CC(CC(C5)C3)C4)cn2)cs1 [Example 59a, N-((6-(thiophen-3-yl)pyridin-3-yl)methyl)adamantan-1-amine]		A (key: (A)=31-95%; (B)=0-30%)
c1nc(N2CCOCC2)ncc1CNC12CC3CC(CC(C3)C1)C2 [Example 57b, N-((2-morpholinopyrimidin-5-yl)methyl)adamantan-1-amine]	A (key: (A)=31-95%; (B)=0-30%)	
Clc1ccccc1-c1ccc(CNC23CC4CC(CC(C4)C2)C3)nc1 [Example 72b, Adamantan-1-yl-[5-(2-chloro-phenyl)-pyridin-2-ylmethyl]-amine]	A (key: (A)=31-95%; (B)=0-30%)	
Oc1cc(I)ccc1CNC12CC3CC(CC(C3)C1)C2 [Example 2b]	A (key: (A)=31-95%; (B)=0-30%)	
COc1ccc2nc(CN(Cc3nc4ccc(OC)cc4[nH]3)C34CC5CC(CC(C5)C3)C4)[nH]c2c1 [Example 201a, Adamantan-1-yl-bis-(6-methoxy-1H-benzoimidazol-2-ylmethyl)-amine]		B (key: (A)=31-95%; (B)=0-30%)
CC(NC12CC3CC(CC(C3)C1)C2)c1ccc(-c2ccccc2)cc1 (stereo not shown) [Example 4b, N-(1-([1,1′-biphenyl]-4-yl)ethyl)adamantan-1-amine]	B (key: (A)=31-95%; (B)=0-30%)	
CCCSc1ncc(CNC23CC4CC(CC(C4)C2)C3)cn1 [Example 62b, N-((2-propylthiopyrimidin-5-yl)methyl)adamantan-1-amine]	A (key: (A)=31-95%; (B)=0-30%)	
Cc1ccc(-c2nc(CNC34CC5CC(CC(C5)C3)C4)no2)cc1 [Example 128a, N-((5-(p-tolyl)-1,2,4-oxadiazol-3-yl)methyl)adamantan-1-amine]		A (key: (A)=31-95%; (B)=0-30%)
OC12CC3CC(C1)CC(NCc1noc(-c4ccccc4)n1)(C3)C2 [Example 84b, (1s,3r,5R,7S)-3-(((5-phenyl-1,2,4-oxadiazol-3-yl)methyl)amino)adamantan-1-61]	A (key: (A)=31-95%; (B)=0-30%)	
OC12CC3CC(C1)CC(NCc1cc4sccc4s1)(C3)C2 [Example 192a, 3-[(Thieno[3,2-b]thiophen-2-ylmethyl)-amino]-adamantan-1-ol]		A (key: (A)=31-95%; (B)=0-30%)
CC(C)(C)c1ncc(CNC23CC4CC(CC(C4)C2)C3)s1 [Example 20b, N-((2-(tert-butyl)thiazol-5-yl)methyl)adamantan-1-amine]	A (key: (A)=31-95%; (B)=0-30%)	
FC(F)(F)c1cccc(-c2nc(CNC34CC5CC(CC(C5)C3)C4)no2)c1 [Example 125a, N-((5-(3-(trifluoromethyl)phenyl)-1,2,4-oxadiazol-3-yl)methyl)adamantan-1-amine]		A (key: (A)=31-95%; (B)=0-30%)
Cc1ccc(-c2ccc(CNC34CC5CC(CC(C5)C3)C4)s2)o1 [Example 52b, N-((5-(5-Methylfuran-2-yl)thiophen-2-yl)methyl)adamantan-1-amine]	A (key: (A)=31-95%; (B)=0-30%)	
Cc1ccc(-c2cc(CNC34CC5CC(CC(C5)C3)C4)no2)cc1 [Example 120a, N-((5-(p-tolyl)isoxazol-3-yl)methyl)adamantan-1-amine]		A (key: (A)=31-95%; (B)=0-30%)
c1csc(-c2nnc(CNC34CC5CC(CC(C5)C3)C4)s2)c1 [Example 151a, N-((5-(thiophen-2-yl)-1,3,4-thiadiazol-2-yl)methyl)adamantan-1-amine]		A (key: (A)=31-95%; (B)=0-30%)
c1ccc(-c2cc(CNC34CC5CC(CC(C5)C3)C4)on2)cc1 [Example 164a]		A (key: (A)=31-95%; (B)=0-30%)
